Columns and labels:
TRPV-1 = target: T1, TRPV-1 (Rattus norvegicus, UniProt O35433); assay: Ca2+ microfluorimetry (fura-2 ratiometric imaging) of the capsaicin response; format: cell-based
T1 construct: endogenous in cells; host or cells: 50B11 immortalized rat DRG neuronal cell line, with and without forskolin differentiation
Protocol: Ca^2+ microfluorimetry and imaging in forskolin-differentiated 50HB cells were performed by ratiometric imaging of the Ca2+-sensitive fluorescent dye fura-2. Cells were grown on glass coverslips in 12-well dishes and calcium imaging was done with and without differentiation with 50-μM forskolin. Cell were loaded for 15 min at 37° C. with 2 M fura-2 acetoxymethyl ester (Molecular Probes, Carlsbad, Calif.) in Krebs-HEPES buffer (100 mM NaCl, 2.0 mM KCl, 1.0 mM CaCl2, 1.0 mM MgCl2, 1.0 mM NaH2PO4, 4.2 mM NaHCO3, 12.5 mM HEPES and 10.0 mM glucose), then washed for 3 times in buffer to remove remaining fura-2 ester. The coverslip with loaded cells was then mounted on an inverted epifluorescence microscope (Zeiss, Axiovert 200) and covered with 60 μl Krebs-HEPES buffer or buffer with capsaicin. In capsazepin pretreatment experiments, capsazepin was added Images were acquired every ˜3 seconds with an extended Hamamatsu Digital Camera C4742-95 (Hamamatsu Photonics, Barcelona, Spain) using a dual filter wheel (Sutter Instruments, Novato, Calif., USA) equipped with 340 and 380 nm, 10-nm-bandpass filters (Omega Optics, Madrid, Spain). Data was acquired using InCyt Im2 software (Intracellular Imaging, Inc.). Fluorescence changes are expressed as the ratio of fluorescence at 340 and 380 nm (F340/F380).

50B11 cells [1] = conditions: 24 hours
Protocol: Conditions for culturing the 50B11 cells and measuring the ATP levels were optimized for the 96-well plate format. Initially 500 cells/well were plated in 96-well plates for 24 hours and then differentiated with forskolin (50 μM) in culture medium with reduced serum (0.2%). […] Cellular ATP levels were measured using the ViaLight Plus kit (Cambrex, city, state) according to manufacturer's instructions. This luciferase-based assay allows measurement of ATP levels on a luminometer with minimal manipulation of the well contents.
Next, we tested whether we can evaluate the neurotoxicity of capsaicin in an assay suitable for 96-well plate format. Capsaicin causes axonal degeneration and death of nociceptive DRG sensory neurons [ref here]. In order to evaluate cell survival we used a luciferase-based assay to measure cellular ATP levels.

50B11 cells [2] = assay: Forskolin-induced differentiation and neurite extension of the immortalized DRG neuronal line; format: cell-based, rat; conditions: for neurite extension in presence of neurotrophic factor: 50B11 cells
Protocol: One of the immortalized DRG neuronal cell lines (50B11) maintained self-replication capability over many cell divisions (>300) and was used in further analysis of neuronal properties. Differentiation and axonal elongation was induced in these cells by addition of forskolin (50 μM) into the culture medium. Within hours, more than 90% cells stopped dividing and extended long neurites. These cells were grown in 24-well plates on glass coverslips, fixed with 4% paraformaldehyde and immunostained for presence of neurofilament (SMI-32 antibody from Stemberger Monoclonals Inc., Lutherville, Md.), ßIII-tubulin (Promega, Madison Wis.), transient receptor potential channel, vanilloid subfamily member-1 (TRPV-1) (Abeam, Cambridge, Mass.), calcitonin gene related protein (CGRP) (source, city, state) or isolectin B-4 (IB4) (Vector Laboratories, Burlingame, Calif.) using standard methods (Keswani et al., supra). Slides were counterstained with 4′,6-Diamidino-2-phenylindole (DAPI) and mounted with Vectashield (Vector Laboratories, Burlingame, Calif.). Specificity of all primary and secondary antibodies was confirmed using appropriate positive and negative control cultures.

50B11 cells [3] = assay: Real-time PCR of gene expression changes; format: cell-based, rat
Protocol: For analysis of changes in gene expression, 501311 cells were grown in media containing forskolin (50 μM), NGF (10 ng/ml), GDNF (10 ng/ml) or vehicle control for 24 hours. Total RNA was isolated using the TRIzol Reagent according to the manufacturer's recommendation. Two μg total RNA was reverse-transcribed using Ready-To-Go You-Prime First-Strand Bead (Amersham Biosciences, Piscataway, N.J.) according to manufacturer's protocols. Real-time PCR was carried out in a DNA Engine Opticon Continuous Fluorescence Detection System using DyNAmo SYBR Green Polymerase (MJ Research, Waltham, Mass.). All primers were designed according to the individual gene sequence in the GenBank/EMBL nucleotide sequence database (primer sequences are available upon request). The binding positions of all primers were chosen to produce amplicons of 150 to 200 base pairs and to achieve maximum efficiency and specificity. All primer sequences were checked for specificity by a BLAST search in the GenBank/EMBL nucleotide sequence database. The primers were synthesized by Integrated DNA Technologies, Inc. (Coralville, Iowa). […] The expression levels of individual genes before and after treatment were calculated using the comparative CT method.

50B11 cells [4] = assay: Axonal degeneration, total neurite length measurement; format: cell-based, rat; conditions: differentiated 50B11 cells treated 24 hours

T1 sequence (O35433 whole entry): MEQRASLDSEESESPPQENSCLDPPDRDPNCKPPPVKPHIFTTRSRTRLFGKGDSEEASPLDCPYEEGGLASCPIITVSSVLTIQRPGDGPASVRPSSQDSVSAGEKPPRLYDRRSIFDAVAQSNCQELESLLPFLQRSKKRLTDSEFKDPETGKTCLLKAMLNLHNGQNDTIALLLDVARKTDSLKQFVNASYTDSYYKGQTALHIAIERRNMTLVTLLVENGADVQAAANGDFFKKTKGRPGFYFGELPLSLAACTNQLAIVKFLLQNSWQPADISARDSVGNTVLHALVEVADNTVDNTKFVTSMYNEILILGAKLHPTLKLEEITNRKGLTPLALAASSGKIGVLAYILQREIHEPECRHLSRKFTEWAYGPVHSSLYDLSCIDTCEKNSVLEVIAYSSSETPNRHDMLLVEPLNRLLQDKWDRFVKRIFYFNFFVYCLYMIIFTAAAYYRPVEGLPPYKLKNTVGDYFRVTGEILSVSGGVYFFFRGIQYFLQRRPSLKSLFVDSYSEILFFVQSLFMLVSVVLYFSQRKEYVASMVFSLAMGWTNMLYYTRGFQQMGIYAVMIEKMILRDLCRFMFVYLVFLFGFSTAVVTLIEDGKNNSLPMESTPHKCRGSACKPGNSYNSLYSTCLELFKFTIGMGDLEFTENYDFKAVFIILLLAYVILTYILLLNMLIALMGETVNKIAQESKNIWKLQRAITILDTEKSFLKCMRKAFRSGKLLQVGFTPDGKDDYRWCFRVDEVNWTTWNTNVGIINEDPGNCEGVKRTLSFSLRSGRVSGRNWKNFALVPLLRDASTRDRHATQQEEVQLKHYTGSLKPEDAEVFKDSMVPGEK

Oc1cc2c(cc1O)CN(C(=S)NCCc1ccc(Cl)cc1)CCC2 [capsazepin]
prevention of capsaicin-induced rise in intracellular calcium (TRPV-1; pretreatment of 50B11 cells before capsaicin): preventable | prevention of capsaicin-induced neurotoxicity (ATP levels) (50B11 cells [1]; co-administration with capsaicin): preventable

C=C[C@@]1(C)CC(=O)[C@]2(O)[C@@]3(C)[C@@H](O)CCC(C)(C)[C@@H]3[C@H](O)[C@H](OC(C)=O)[C@@]2(C)O1 [forskolin]
cells that stopped dividing and extended long neurites (50B11 cells [2]; forskolin 50 μM in culture medium, within hours): more than 90%

NGF: neurotrophic factor, nerve growth factor
neurite extension in presence of neurotrophic factor (50B11 cells [2]): extended longer neurites | Trk-A upregulation (50B11 cells [3]; forskolin plus NGF 10 ng/ml versus forskolin plus GDNF): more upregulated

CCC(C)(C)C(=O)C(=O)N1CCC[C@H]1C(=O)OCCCc1cccnc1 [GPI-1046]
prevention of ddC neurotoxicity (ATP levels) (50B11 cells [1]; co-administration with ddC): preventable

COc1cc(CNC(=O)CCCC/C=C/C(C)C)ccc1O [capsaicin]
intracellular calcium levels (TRPV-1; 50B11 cells, fura-2 F340/F380): rapid rise in intracellular calcium levels | reduction in ATP levels (50B11 cells [1]; 10 μM capsaicin, differentiated 50B11 cells): about 50%

Nc1ccn([C@H]2CC[C@@H](CO)O2)c(=O)n1 [ddC]
toxicity by total neuritic lengths (50B11 cells [4]): validated this toxicity

B1: GDNF: neurotrophic factor acting on c-ret and GFRα-1 (protein, UniProt P39905 78-211, looked up)
Glial cell line-derived …: SPDKQMAVLPRRERNRQAAAANPENSRGKGRRGQRGKNRGCVLTAIHLNVTDLGLGYETKEELIFRYCSGSCDAAETTYDKILKNLSRNRRLVSDKVGQACCRPIAFDDDLSFLDDNLVYHILRKHSAKRCGCI
neurite extension in presence of neurotrophic factor (50B11 cells [2]): extended longer neurites | GFRα-1 upregulation (50B11 cells [3]; forskolin plus GDNF 10 ng/ml versus forskolin plus NGF): more upregulated

— US10273451B2, “Immortalization of cells including neuronal cells” (The Johns Hopkins University, priority 2005, dated 2019)
